Values after ≈ are worked out from the molar mass of the structure shown.
How the values were obtained:
[1] = in a carbonate-based electrolyte; cited from earlier work
[2] = Cyclic voltammetry in non-aqueous carbonate electrolyte; format: physicochemical; conditions: 10 mM in 1.5 M LiPF6 in EC/EMC 3:7 (v/v); glassy carbon working electrode, lithium metal counter and reference; iR-correction
Procedure: (§1) FIG. 3 provides cyclic voltammograms of 10 mM 4-(1,4-dioxabutyl)-2,2,6,6-tetramethylpiperidine-1-oxyl (TEMPO-EG1) in a non-aqueous electrolyte (1.5 M LiPF6 in a mixture of ethylene carbonate (EC) and ethyl methyl carbonate (EMC), 3:7 (v/v), respectively) at various scan rates given in mV/s. In FIG. 3, the cyclic voltammograms were measured at various rates with iR-correction applied. A glassy carbon electrode was used as the working electrode, while lithium metal strips were used as the counter and reference electrodes.
as §1, with “FIG. 4” for “FIG. 3”, “mM 4-(1,4,7-trioxaoctyl)-2,2,6,6-tetramethylpiperidine-1-oxyl (TEMPO-EG2)” for “mM 4-(1,4-dioxabutyl)-2,2,6,6-tetramethylpiperidine-1-oxyl (TEMPO-EG1)”, “FIG. 4,” for “FIG. 3,”
as §1, with “FIG. 5” for “FIG. 3”, “mM 4-(1,4,7,10-tetraoxaundecyl)-2,2,6,6-tetramethylpiperidine-1-oxyl (TEMPO-EG3)” for “mM 4-(1,4-dioxabutyl)-2,2,6,6-tetramethylpiperidine-1-oxyl (TEMPO-EG1)”, “FIG. 5,” for “FIG. 3,”

[3] = Viscosity measurement with RHEOSENSE microfluidic MEMS viscometer; format: physicochemical; conditions: neat liquid, 23.4° C., shear rates 500-5000 s^−1 (EG1, EG2) or 100-4000 s^−1 (EG3)
Procedure: The viscosities of liquid TEMPO derivatives were determined at 23.4° C. using a RHEOSENSE microfluidic and micro-electro-mechanical-systems (MEMS) viscometer. The RHEOSENSE viscometer is based on the viscometer-rheometer-on-a-chip (VROC) technology. For TEMPO-EG1 and EG2, shear rates were swept from 500 s^−1 to 5000 s^−1, while the viscosity of TEMPO-EG3 was measured from 100 s^−1 to 4000 s^−1. […] Longer glycol ether chains lead to increases in viscosity, but the impact differs drastically.

[4] = Cyclic voltammetry in aqueous electrolytes; format: physicochemical; conditions: for redox potential: Pt disk working electrode, Pt coil counter
Procedure: Cyclic voltammograms of 10 mM TEMPO-EG3 in an aqueous electrolyte (1 M aqueous sulfuric acid) were measured at various scan rates given in mV/s. A Pt disk was used as the working electrode, while the counter electrode was a Pt coil and the reference electrode was Ag/AgCl.
Cyclic voltammograms of 10 mM TEMPO-EG3 in an aqueous electrolyte (1M aqueous sodium chloride) were measured at various scan rates given in mV/s. A Pt disk was used as the working electrode, while the counter electrode was a Pt coil and the reference electrode was Ag/AgCl.

| redox potential [2] [V vs. Li/Li^+] | viscosity [3] [mPa·s] | redox potential ([4]; 10 mM in 1M aqueous sodium chloride (neutral electrolyte)) | redox potential ([4]; 10 mM in 1 M aqueous sulfuric acid (acidic electrolyte)) | electrochemical reversibility ([4]; cyclic voltammetry in common aqueous electrolytes) | Structure (SMILES) | solubility [1] [mM] |
| --- | --- | --- | --- | --- | --- | --- |
|  |  |  |  |  | COCCOc1cc(C(C)(C)C)c(OC)cc1C(C)(C)C [DBMMEB, 1,4-di-tert-butyl-2-methoxy-5-(2-rnethoxyethoxy)benzene] | 600 (≈ 177 mg/mL) |
| 3.53 | 10.88 |  |  |  | COCCOCCOC1CC(C)(C)N([O])C(C)(C)C1 [TEMPO-EG2, 4-(3,6-dioxaheptyloxy)-2,2,6,6-tetramethylpiperidine-1-oxyl] |  |
| 3.53 | 21.30 | about 0.59 V vs. Ag/AgCl | about 0.55 V vs. Ag/AgCl | excellent electrochemical reversibility | COCCOCCOCCOC1CC(C)(C)N([O])C(C)(C)C1 [TEMPO-EG3, 4-(3,6,9-trioxadecyloxy)-2,2,6,6-tetramethylpiperidine-1-oxyl] |  |

| Structure (SMILES) | redox potential [2] [V vs. Li/Li^+] | viscosity [3] [mPa·s] | redox potential ([4]; 10 mM in 1M aqueous sodium chloride (neutral electrolyte)) | redox potential ([4]; 10 mM in 1 M aqueous sulfuric acid (acidic electrolyte)) | electrochemical reversibility ([4]; cyclic voltammetry in common aqueous electrolytes) | solubility [1] [mM] |
| --- | --- | --- | --- | --- | --- | --- |
| COCCOC1CC(C)(C)N([O])C(C)(C)C1 [TEMPO-EG1, 4-(2-methoxyethoxy)-2,2,6,6-tetramethylpiperidine-1-oxyl] | 3.53 | 10.23 |  |  |  |  |

From patent publication US11271237B2, “Organic redox molecules for flow batteries” (UCHICAGO ARGONNE, LLC, priority 2019, dated 2022)
